Test in all cases: Kinase binding assay (kinase-tagged T7 phage, qPCR), Kd
Background: In qPCR the cycle at which signal appears reflects the starting amount.

For one experiment, the target named is T1, FGFR4 (Homo sapiens, UniProt P22455).
T1 construct: made in house; host or cells: E. coli derived from BL21, infected with T7 phage

The next experiment addresses T2, FGFR3 (Homo sapiens, UniProt P22607).
T2 construct: made in house; host or cells: E. coli derived from BL21, infected with T7 phage

The target in another experiment is T3, FGFR2 (Homo sapiens, UniProt P21802).
T3 construct: made in house; host or cells: E. coli derived from BL21, infected with T7 phage

In another experiment the target is T4, FGFR1 (Homo sapiens, UniProt P11362).
T4 construct: made in house; host or cells: E. coli derived from BL21, infected with T7 phage

Counter-ions that a name gives are not always drawn. Like-named read-outs stand apart in the source and are kept apart here.

T2 sequence (P22607 23-806): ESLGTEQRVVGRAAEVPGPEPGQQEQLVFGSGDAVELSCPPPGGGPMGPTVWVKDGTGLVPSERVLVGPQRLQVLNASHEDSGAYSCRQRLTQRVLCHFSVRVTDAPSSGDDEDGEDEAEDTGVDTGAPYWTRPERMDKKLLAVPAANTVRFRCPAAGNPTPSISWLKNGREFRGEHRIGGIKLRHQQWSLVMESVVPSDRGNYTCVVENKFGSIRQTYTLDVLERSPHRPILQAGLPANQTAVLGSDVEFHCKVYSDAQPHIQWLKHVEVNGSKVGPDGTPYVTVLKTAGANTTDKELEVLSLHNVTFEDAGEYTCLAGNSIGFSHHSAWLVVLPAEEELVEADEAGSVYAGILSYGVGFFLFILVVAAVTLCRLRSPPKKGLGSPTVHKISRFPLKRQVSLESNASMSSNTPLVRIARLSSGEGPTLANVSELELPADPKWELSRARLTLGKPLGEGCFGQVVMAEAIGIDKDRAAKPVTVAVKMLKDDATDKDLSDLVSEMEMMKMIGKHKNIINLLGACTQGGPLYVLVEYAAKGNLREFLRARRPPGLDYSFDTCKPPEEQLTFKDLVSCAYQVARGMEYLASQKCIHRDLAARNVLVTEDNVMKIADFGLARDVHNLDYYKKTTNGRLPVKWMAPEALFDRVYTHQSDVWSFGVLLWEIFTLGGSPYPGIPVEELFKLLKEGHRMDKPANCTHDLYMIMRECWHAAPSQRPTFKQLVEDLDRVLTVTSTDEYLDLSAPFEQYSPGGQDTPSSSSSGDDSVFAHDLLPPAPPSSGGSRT
T3 sequence (P21802 22-821): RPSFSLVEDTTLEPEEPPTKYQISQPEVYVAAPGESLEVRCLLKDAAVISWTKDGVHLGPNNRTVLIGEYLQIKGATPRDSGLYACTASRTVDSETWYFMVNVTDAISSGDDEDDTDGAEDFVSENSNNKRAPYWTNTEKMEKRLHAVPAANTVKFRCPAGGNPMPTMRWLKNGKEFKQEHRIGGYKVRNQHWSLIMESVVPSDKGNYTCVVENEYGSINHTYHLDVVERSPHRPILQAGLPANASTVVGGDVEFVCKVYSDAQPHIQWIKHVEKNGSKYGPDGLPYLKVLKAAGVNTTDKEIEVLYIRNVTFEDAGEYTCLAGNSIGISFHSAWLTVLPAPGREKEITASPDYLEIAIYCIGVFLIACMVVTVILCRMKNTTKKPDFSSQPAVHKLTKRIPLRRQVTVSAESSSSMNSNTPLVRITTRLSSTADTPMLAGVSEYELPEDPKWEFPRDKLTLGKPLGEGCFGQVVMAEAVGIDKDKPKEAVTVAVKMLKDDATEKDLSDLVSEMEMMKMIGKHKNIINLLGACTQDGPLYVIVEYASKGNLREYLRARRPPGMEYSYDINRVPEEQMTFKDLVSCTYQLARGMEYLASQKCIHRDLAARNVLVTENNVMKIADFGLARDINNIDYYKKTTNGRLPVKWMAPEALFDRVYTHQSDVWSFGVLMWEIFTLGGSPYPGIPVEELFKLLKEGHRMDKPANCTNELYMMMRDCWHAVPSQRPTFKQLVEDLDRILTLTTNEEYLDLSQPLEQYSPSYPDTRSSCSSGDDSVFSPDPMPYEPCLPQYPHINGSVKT
T1 sequence (P22455 22-802): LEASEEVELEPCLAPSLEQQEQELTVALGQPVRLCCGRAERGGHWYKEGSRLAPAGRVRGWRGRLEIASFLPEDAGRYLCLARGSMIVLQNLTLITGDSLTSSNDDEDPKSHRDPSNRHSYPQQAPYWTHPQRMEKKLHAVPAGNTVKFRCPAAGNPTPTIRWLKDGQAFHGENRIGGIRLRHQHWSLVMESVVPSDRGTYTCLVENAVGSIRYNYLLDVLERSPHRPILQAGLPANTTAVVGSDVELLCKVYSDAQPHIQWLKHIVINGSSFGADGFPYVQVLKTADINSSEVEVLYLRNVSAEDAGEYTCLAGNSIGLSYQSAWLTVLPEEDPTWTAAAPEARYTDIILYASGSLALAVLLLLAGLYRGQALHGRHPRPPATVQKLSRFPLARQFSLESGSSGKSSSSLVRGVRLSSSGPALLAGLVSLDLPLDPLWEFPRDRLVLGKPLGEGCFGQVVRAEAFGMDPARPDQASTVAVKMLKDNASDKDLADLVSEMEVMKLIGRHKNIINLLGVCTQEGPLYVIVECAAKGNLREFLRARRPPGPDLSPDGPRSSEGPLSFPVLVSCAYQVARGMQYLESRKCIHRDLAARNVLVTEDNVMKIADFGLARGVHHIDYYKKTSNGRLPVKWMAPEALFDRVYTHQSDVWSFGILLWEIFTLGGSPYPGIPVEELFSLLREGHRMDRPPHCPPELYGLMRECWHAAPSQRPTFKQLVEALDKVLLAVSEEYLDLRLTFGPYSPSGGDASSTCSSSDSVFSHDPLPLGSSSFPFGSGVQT
T4 sequence (P11362 22-822): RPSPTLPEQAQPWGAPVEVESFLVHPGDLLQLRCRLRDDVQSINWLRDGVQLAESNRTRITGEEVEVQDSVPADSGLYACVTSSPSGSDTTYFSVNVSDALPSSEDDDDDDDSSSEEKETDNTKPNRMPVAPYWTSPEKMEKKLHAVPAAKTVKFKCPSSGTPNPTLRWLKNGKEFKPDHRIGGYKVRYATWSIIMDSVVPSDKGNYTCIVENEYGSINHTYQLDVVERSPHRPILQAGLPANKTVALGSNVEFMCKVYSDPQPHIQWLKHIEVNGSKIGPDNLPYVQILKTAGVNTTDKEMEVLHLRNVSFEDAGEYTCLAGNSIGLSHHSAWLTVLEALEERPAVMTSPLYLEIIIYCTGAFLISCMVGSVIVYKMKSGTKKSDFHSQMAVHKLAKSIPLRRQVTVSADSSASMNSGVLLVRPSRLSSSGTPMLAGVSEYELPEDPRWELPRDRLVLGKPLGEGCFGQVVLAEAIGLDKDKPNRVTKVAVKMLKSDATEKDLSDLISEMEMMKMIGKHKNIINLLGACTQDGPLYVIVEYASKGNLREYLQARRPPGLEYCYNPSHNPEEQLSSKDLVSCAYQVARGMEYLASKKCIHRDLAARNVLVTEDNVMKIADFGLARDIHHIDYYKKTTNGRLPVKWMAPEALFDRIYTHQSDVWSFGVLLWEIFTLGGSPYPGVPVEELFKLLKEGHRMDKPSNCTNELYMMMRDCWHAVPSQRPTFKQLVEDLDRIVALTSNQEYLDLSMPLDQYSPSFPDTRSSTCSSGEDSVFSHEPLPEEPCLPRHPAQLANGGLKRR

`COc1c(C)cc(-c2n[nH]c3ccc(O[C@H](C)c4c(C)cnnc4C)cc23)cc1C#N` [Example 80, 5-[5-[(1R)-1-(3,5-dimethylpyridazin-4-yl)ethoxy]-1H-indazol-3-yl]-2-methoxy-3-methyl-benzonitrile]: the dissociation constant Kd on FGFR4 (read-out: FGFR4 (Kd nM)) is 0.1 to 100 nM; at FGFR3 (read-out: FGFR3 (Kd nM)), 0.1 to 100 nM; at FGFR2 (read-out: FGFR2 (Kd nM)) it was 0.1 to 100 nM; on FGFR1 (read-out: FGFR1 (Kd nM)), 100 to 250 nM.
For the molecule `COc1cc2[nH]nc(-c3cnc(O[C@@H]4CCOC4)c(C#N)c3)c2cc1O[C@H](C)c1c(Cl)cncc1Cl` [Example 136, 5-(5-((R)-1-(3,5-dichloropyridin-4-yl)ethoxy)-6-methoxy-1H-indazol-3-yl)-2-(((R)-tetrahydrofuran-3-yl)oxy)nicotinonitrile], the Kd on FGFR4 (read-out: FGFR4 (Kd nM)), on FGFR3 (read-out: FGFR3 (Kd nM)), at FGFR2 (read-out: FGFR2 (Kd nM)) and at FGFR1 (read-out: FGFR1 (Kd nM)) was 0.1 to 100 nM throughout.
On to `COc1cc(-c2n[nH]c3ccc(O[C@H](C)c4c(C)cnnc4C)cc23)cc(C#N)n1` [Example 100, (R)-4-(5-(1-(3,5-dimethylpyridazin-4-yl)ethoxy)-1H-indazol-3-yl)-6-methoxypicolinonitrile], for which the Kd at FGFR4 (read-out: FGFR4 (Kd nM)) was in the range of 0.1 to 100 nM; on FGFR3 (read-out: FGFR3 (Kd nM)) it was 100 to 250 nM; at FGFR2 (read-out: FGFR2 (Kd nM)) it was 250 to 1000 nM; on FGFR1 (read-out: FGFR1 (Kd nM)) it was 250 to 1000 nM.
For the molecule `COc1ncc(-c2n[nH]c3ccc(O[C@H](C)c4c(Cl)cncc4Cl)cc23)cc1NC(=O)N1CCOCC1` [Example 5, (R)—N-(5-(5-(1-(3,5-Dichloropyridin-4-yl)ethoxy)-1H-indazol-3-yl)-2-methoxypyridin-3-yl)morpholine-4-carboxamide], the Kd is 0.1 to 100 nM at FGFR4 (read-out: FGFR4 (Kd nM)), 250 to 1000 nM at FGFR3 (read-out: FGFR3 (Kd nM)), 100 to 250 nM at FGFR2 (read-out: FGFR2 (Kd nM)) and more than 1000 nM on FGFR1 (read-out: FGFR1 (Kd nM)).
Take `COc1cc2[nH]nc(-c3cnc(N(C)C)c(C#N)c3)c2cc1O[C@H](C)c1c(Cl)cncc1Cl` [Example 131, 5-[5-[(1R)-1-(3,5-dichloro-4-pyridyl)ethoxy]-6-methoxy-1H-indazol-3-yl]-2-(dimethylamino)pyridine-3-carbonitrile]: the Kd on FGFR4 (read-out: FGFR4 (Kd nM)), at FGFR3 (read-out: FGFR3 (Kd nM)), at FGFR2 (read-out: FGFR2 (Kd nM)) and at FGFR1 (read-out: FGFR1 (Kd nM)) was 0.1 to 100 nM throughout.
Regarding `Cc1ncc(Cl)c([C@@H](C)Oc2cc3c(-c4cnc5c(c4)N(S(C)(=O)=O)CCO5)n[nH]c3cc2Cl)c1Cl` [Example 143, 7-[6-chloro-5-[(1R)-1-(3,5-dichloro-2-methyl-4-pyridyl)ethoxy]-1H-indazol-3-yl]-1-methylsulfonyl-2,3-dihydropyrido[2,3-b][1,4]oxazine], the Kd at FGFR4 (read-out: FGFR4 (Kd nM)) was 100 to 250 nM; at FGFR3 (read-out: FGFR3 (Kd nM)) it was 100 to 250 nM; on FGFR2 (read-out: FGFR2 (Kd nM)) it was more than 1000 nM; on FGFR1 (read-out: FGFR1 (Kd nM)), more than 1000 nM.
Take `Cc1cc(-c2n[nH]c3ccc(O[C@H](C)c4c(C)cnnc4C)cc23)cc(C#N)c1OC1CCN(C2COC2)CC1` [Example 113, (R)-5-(5-(1-(3,5-dimethylpyridazin-4-yl)ethoxy)-1H-indazol-3-yl)-3-methyl-2-((1-(oxetan-3-yl)piperidin-4-yl)oxy)benzonitrile]: the equilibrium dissociation constant (Kd) on FGFR4 (read-out: FGFR4 (Kd nM)), at FGFR3 (read-out: FGFR3 (Kd nM)), on FGFR2 (read-out: FGFR2 (Kd nM)) and at FGFR1 (read-out: FGFR1 (Kd nM)) was 0.1 to 100 nM throughout.
Turning to `COc1cc(-c2n[nH]c3ccc(O[C@H](C)c4c(C)cnnc4C)cc23)cc2c1OC1(CCN(C(C)C)CC1)OC2` [Example 125, (R)-6-(5-(1-(3,5-dimethylpyridazin-4-yl)ethoxy)-1H-indazol-3-yl)-1′-isopropyl-8-methoxy-4H-spiro[benzo[d][1,3]dioxine-2,4′-piperidine]], the Kd on FGFR4 (read-out: FGFR4 (Kd nM)), at FGFR3 (read-out: FGFR3 (Kd nM)), on FGFR2 (read-out: FGFR2 (Kd nM)) and on FGFR1 (read-out: FGFR1 (Kd nM)) was 0.1 to 100 nM in each case.
In the case of `COc1cc2[nH]nc(-c3cc(C)c(OC)c(C#N)c3)c2cc1O[C@H](C)c1c(C)cnnc1C` [Example 116, (R)-5-(5-(1-(3,5-dimethylpyridazin-4-yl)ethoxy)-6-methoxy-1H-indazol-3-yl)-2-methoxy-3-methylbenzonitrile], the equilibrium dissociation constant (Kd) on FGFR4 (read-out: FGFR4 (Kd nM)), at FGFR3 (read-out: FGFR3 (Kd nM)), on FGFR2 (read-out: FGFR2 (Kd nM)) and on FGFR1 (read-out: FGFR1 (Kd nM)) was 0.1 to 100 nM in each case.
On to `C[C@@H](Oc1ccc2[nH]nc(-c3cnc(NC(=O)CN(C)C)c(F)c3)c2c1)c1c(Cl)cncc1Cl` [Example 22, N-[5-[5-[(1R)-1-(3,5-dichloro-4-pyridyl)ethoxy]-1H-indazol-3-yl]-3-fluoro-2-pyridyl]-2-(dimethylamino)acetamide], for which the Kd at FGFR4 (read-out: FGFR4 (Kd nM)), on FGFR3 (read-out: FGFR3 (Kd nM)), on FGFR2 (read-out: FGFR2 (Kd nM)) and at FGFR1 (read-out: FGFR1 (Kd nM)) was 0.1 to 100 nM throughout.
With `Cc1cc(-c2n[nH]c3ccc(O[C@H](C)c4c(C)cnnc4C)cc23)cc(C#N)n1` [Example 69, 4-[5-[(1R)-1-(3,5-Dimethylpyridazin-4-yl)ethoxy]-1H-indazol-3-yl]-6-methyl-pyridine-2-carbonitrile], the dissociation constant Kd on FGFR4 (read-out: FGFR4 (Kd nM)) was 0.1 to 100 nM; on FGFR3 (read-out: FGFR3 (Kd nM)), 0.1 to 100 nM; on FGFR2 (read-out: FGFR2 (Kd nM)), 0.1 to 100 nM; on FGFR1 (read-out: FGFR1 (Kd nM)) it was 100 to 250 nM.
On to `C[C@@H](Oc1ccc2[nH]nc(-c3ccnc(N)c3)c2c1)c1c(Cl)cncc1Cl` [Example 29, 4-[5-[(1R)-1-(3,5-dichloro-4-pyridyl)ethoxy]-1H-indazol-3-yl]pyridin-2-amine], for which the dissociation constant Kd at FGFR4 (read-out: FGFR4 (Kd nM)), at FGFR3 (read-out: FGFR3 (Kd nM)), at FGFR2 (read-out: FGFR2 (Kd nM)) and on FGFR1 (read-out: FGFR1 (Kd nM)) was 0.1 to 100 nM in each case.
For `C[C@@H](Oc1ccc2[nH]nc(-c3cnc4c(c3)N(CC(F)(F)F)CCO4)c2c1)c1c(Cl)cncc1Cl` [Example 139, (R)-7-(5-(1-(3,5-dichloropyridin-4-yl)ethoxy)-1H-indazol-3-yl)-1-(2,2,2-trifluoroethyl)-2,3-dihydro-1H-pyrido[2,3-b][1,4]oxazine 2,2,2-trifluoroacetate], the dissociation constant (Kd) on FGFR4 (read-out: FGFR4 (Kd nM)), on FGFR3 (read-out: FGFR3 (Kd nM)), on FGFR2 (read-out: FGFR2 (Kd nM)) and at FGFR1 (read-out: FGFR1 (Kd nM)) was more than 1000 nM throughout.
As for `COc1cc(C#N)cc(-c2n[nH]c3cc(OC)c(O[C@@H](C)c4c(C)cnnc4C)cc23)c1` [Example 97, (S)-3-(5-(1-(3,5-dimethylpyridazin-4-yl)ethoxy)-6-methoxy-1H-indazol-3-yl)-5-methoxybenzonitrile], the Kd at FGFR4 (read-out: FGFR4 (Kd nM)) was 250 to 1000 nM; at FGFR3 (read-out: FGFR3 (Kd nM)), more than 1000 nM; on FGFR2 (read-out: FGFR2 (Kd nM)), more than 1000 nM; at FGFR1 (read-out: FGFR1 (Kd nM)), more than 1000 nM.
In the case of `COc1cc2[nH]nc(-c3ccc(N(C)C)nc3)c2cc1O[C@H](C)c1c(Cl)cnc(C)c1Cl` [Example 149, 5-[5-[(1R)-1-(3,5-dichloro-2-methyl-4-pyridyl)ethoxy]-6-methoxy-1H-indazol-3-yl]-N,N-dimethyl-pyridin-2-amine], the equilibrium dissociation constant (Kd) on FGFR4 (read-out: FGFR4 (Kd nM)), at FGFR3 (read-out: FGFR3 (Kd nM)), at FGFR2 (read-out: FGFR2 (Kd nM)) and at FGFR1 (read-out: FGFR1 (Kd nM)) was 0.1 to 100 nM in each case.
`COc1cc(NCc2ccccn2)cc(-c2n[nH]c3ccc(O[C@H](C)c4c(Cl)cncc4Cl)cc23)c1` [Example 46, 3-[5-[(1R)-1-(3,5-dichloro-4-pyridyl)ethoxy]-1H-indazol-3-yl]-5-methoxy-N-(2-pyridyl-methyl)aniline]: the equilibrium dissociation constant (Kd) on FGFR4 (read-out: FGFR4 (Kd nM)) is 0.1 to 100 nM; at FGFR3 (read-out: FGFR3 (Kd nM)), more than 1000 nM; on FGFR2 (read-out: FGFR2 (Kd nM)), more than 1000 nM; on FGFR1 (read-out: FGFR1 (Kd nM)) it was more than 1000 nM.
In the case of `C[C@@H](Oc1ccc2[nH]nc(-c3ccc4c(c3)COC3(CCNCC3)O4)c2c1)c1c(Cl)cncc1Cl` [Example 94, (R)-6-(5-(1-(3,5-Dichloropyridin-4-yl)ethoxy)-1H-indazol-3-yl)-4H-spiro[benzo[d][1,3]dioxine-2,4′-piperidine] TFA salt], the Kd on FGFR4, on FGFR3, on FGFR2 and on FGFR1 was 0.1 to 100 nM throughout.
`Cc1cnnc(C)c1[C@@H](C)Oc1ccc2[nH]nc(-c3cc(C#N)cc(C4CC4)c3)c2c1` [Example 84, 3-cyclopropyl-5-[5-[(1R)-1-(3,5-dimethyl-pyridazin-4-yl)ethoxy]-1H-indazol-3-yl]benzonitrile]: the dissociation constant Kd on FGFR4 (read-out: FGFR4 (Kd nM)) was 0.1 to 100 nM; at FGFR3 (read-out: FGFR3 (Kd nM)), 0.1 to 100 nM; on FGFR2 (read-out: FGFR2 (Kd nM)) it was 250 to 1000 nM; at FGFR1 (read-out: FGFR1 (Kd nM)), 250 to 1000 nM.
Turning to `CCN1CCC2(CC1)CC(=O)c1cc(-c3n[nH]c4ccc(O[C@H](C)c5c(C)cnnc5C)cc34)ccc1O2` [Example 99, (R)-6-(5-(1-(3,5-dimethylpyridazin-4-yl)ethoxy)-1H-indazol-3-yl)-1′-ethylspiro[chroman-2,4′-piperidin]-4-one], the dissociation constant (Kd) on FGFR4 (read-out: FGFR4 (Kd nM)), at FGFR3 (read-out: FGFR3 (Kd nM)), on FGFR2 (read-out: FGFR2 (Kd nM)) and at FGFR1 (read-out: FGFR1 (Kd nM)) was 0.1 to 100 nM throughout.
Regarding `C[C@@H](Oc1ccc2[nH]nc(-c3cnc4c(c3)N(C(=O)CN(C)C)CCO4)c2c1)c1c(Cl)cncc1Cl` [Example 21, 1-[7-[5-[(1R)-1-(3,5-dichloro-4-pyridyl)ethoxy]-1H-indazol-3-yl]-2,3-dihydropyrido[2,3-b][1,4]oxazin-1-yl]-2-(dimethylamino)ethanone], the equilibrium dissociation constant (Kd) is 0.1 to 100 nM on FGFR4 (read-out: FGFR4 (Kd nM)), 250 to 1000 nM on FGFR3 (read-out: FGFR3 (Kd nM)), more than 1000 nM at FGFR2 (read-out: FGFR2 (Kd nM)) and more than 1000 nM at FGFR1 (read-out: FGFR1 (Kd nM)).
As to `C[C@@H](Oc1ccc2[nH]nc(-c3cnc4c(c3)N(C(=O)N3CCOCC3)CCO4)c2c1)c1c(Cl)cncc1Cl` [Example 18, [7-[5-[(1R)-1-(3,5-dichloro-4-pyridyl)ethoxy]-1H-indazol-3-yl]-2,3-dihydropyrido[2,3-b][1,4]oxazin-1-yl]-morpholino-methanone], the Kd was in the range of 0.1 to 100 nM on FGFR4 (read-out: FGFR4 (Kd nM)), 100 to 250 nM on FGFR3 (read-out: FGFR3 (Kd nM)), 250 to 1000 nM at FGFR2 (read-out: FGFR2 (Kd nM)) and 250 to 1000 nM at FGFR1 (read-out: FGFR1 (Kd nM)).
Regarding `COc1cc(-c2n[nH]c3ccc(O[C@H](C)c4c(Cl)cncc4Cl)cc23)cc(C#N)c1OC1CCN(C(C)C)CC1` [Example 126, 5-[5-[(1R)-1-(3,5-dichloro-4-pyridyl)ethoxy]-1H-indazol-3-yl]-2-[(1-isopropyl-4-piperidyl)oxy]-3-methoxy-benzonitrile], the equilibrium dissociation constant (Kd) on FGFR4 (read-out: FGFR4 (Kd nM)) was 0.1 to 100 nM; on FGFR3 (read-out: FGFR3 (Kd nM)), 250 to 1000 nM; on FGFR2 (read-out: FGFR2 (Kd nM)), more than 1000 nM; at FGFR1 (read-out: FGFR1 (Kd nM)) it was 250 to 1000 nM.

Broadly, the Kd is the constant that tells how readily two partners part at equilibrium.

(Values after patent US20240316022A1 (TYRA BIOSCIENCES, INC., priority 2021, published 2024).)
